Measurements taken from patent publication US20100234325A1 (priority 2009, published 2010).
Where “and” joins values, the source holds several entries; their conditions need not be identical. Equal entries are not always repeated. Where two headings read alike, the source gives them in different places.

What was measured:
D54 tumor = details: intraarterial or intravenous administration; cited from earlier work
D54 = details: intrathecal administration; cited from earlier work
TE-671 = details: intrathecal administration; cited from earlier work
L1210 leukemia [1] = experiment: intracerebrally implanted L1210 leukemia in vivo; design: species or system murine; details: for leukemia cell burden after therapy: highest non-toxic dose; for increase in lifespan (ILS): highest non-toxic doses
MX-1 human breast tumor = format: in vivo
[2] = tested on: human glioblastoma xenograft U-251; format: in vivo
L1210 leukemia [3] = details: intracerebral L1210 model, typical value; cited from earlier work
L1210 leukemia [4] = details: IP implant; cited from earlier work
SF-268 = SF-268 glioma cell line
From the text: (§1) Additional in vitro studies vs. U251, D54 and MDA-MB-361 cells also included 4-HC.

SNB-7 = SNB-7 glioma cell line
From the text: as §1

SNB-19 = SNB-19 glioma cell line
From the text: as §1

[5] = after 6 hours, ambient temperature, 31P-NMR

In the case of `O=P1(N(CCCl)CCCl)NC(OO)CCO1` (centres unmarked) [4-HC, 4-hydroperoxycyclophosphamide], the “activity against D54 tumor” value (D54 tumor) is listed as “active”, the “activity against D54 brain tumor model” value (D54) is listed as “active” and the “activity against TE-671 brain tumor model” value (TE-671) is listed as “active”. The “activity against intracerebrally implanted L1210 leukemia” value (L1210 leukemia [1]; implant of 10^4 cells) was “essentially inactive”.

With `O=NN(CCCl)C(=O)NCCCl` [BCNU, carmustine, reference compound] the ILS (MX-1 human breast tumor; in vivo) was 13% and the ILS ([2]; in vivo) was 110-150% and 130%.

In the case of `O=P1(N(CCCl)CCCl)NCCCO1` (centres unmarked) [CPA, cyclophosphamide, reference compound], the “highest non-toxic dose (typical)” value (L1210 leukemia [3]) is listed as 250 to 300 mg/kg, the “leukemia cell burden after therapy” value (L1210 leukemia [1]; implant of 10^4 cells) is listed as 1.3×10^2 cells and the “increase in lifespan (ILS)” value (L1210 leukemia [1]; implant of 10^5 L1210 cells) is listed as 37%.

For `O=P1(N(CCCl)CCCl)NC(OOC2CCOP(=O)(N(CCCl)CCCl)N2)CCO1` (centres unmarked) [peroxyCPA, 4-peroxy-cyclophosphamide], the “activity against intraperitoneally-implanted L1210 leukemia” value (L1210 leukemia [4]) is listed as “curative activity”, the DNA crosslinking (pBR322 DNA) is listed as “crosslinks DNA” and the ILS (MX-1 human breast tumor; IC-implanted MX-1) is listed as 69%. For the same compound, the ILS ([2]; IC-implanted U-251, one (first) study) was 300-350%, the ILS ([2]; IC-implanted U-251, second study) was 180% and the “in vitro activity compared to BCNU and temozolomide” value (SF-268) was “superior activity”. The “in vitro activity compared to BCNU and temozolomide” value (SNB-7) was “superior activity”, the “in vitro activity compared to BCNU and temozolomide” value (SNB-19) was “superior activity” and the “leukemia cell burden after therapy” value (L1210 leukemia [1]; implant of 10^4 cells) was 1.0×10^0 cells. The “increase in lifespan (ILS) over controls” value (L1210 leukemia [1]; implant of 10^4 cells, highest non-toxic dose (300 mg/kg)) was 85%, the “reduction of leukemia cell burden relative to CPA” value (L1210 leukemia [1]; implant of 10^5 L1210 cells) was “two orders of magnitude more” and the “increase in lifespan (ILS)” value (L1210 leukemia [1]; implant of 10^5 L1210 cells) was 100%. The highest non-toxic dose (L1210 leukemia [1]; intracerebral L1210 model) was 300 mg/kg and the “remaining in human serum” value [5] was 74%.
